In brackets after ≈: the same amount, converted by molar mass. Activity calls are given as the source filed them. The rule behind the calls is not given here.
What was measured:
Format in all cases: functional
[1] = test system: Mycobacterium tuberculosis; test: Antimycobacterial activity against isoniazid/rifampicin/ethambutol-resistant Mycobacterium tuberculosis G122 assessed as inhibition of mycobacterial growth incubated for 2 weeks by MABA method; settings: for MIC: Mycobacterium tuberculosis, G122, 336 h
[2] = test system: Mycobacterium tuberculosis; test: Antimycobacterial activity against isoniazid/rifampicin/streptomycin-resistant Mycobacterium tuberculosis G133 assessed as inhibition of mycobacterial growth incubated for 2 weeks by MABA method; settings: for MIC: Mycobacterium tuberculosis, G133, 336 h
[3] = test system: Mycobacterium tuberculosis; test: Antimycobacterial activity against isoniazid/rifampicin/ethambutol-resistant Mycobacterium tuberculosis G122 assessed as inhibition of mycobacterial growth up to 50 ug/ml incubated for 2 weeks by MABA method
[4] = test system: Mycobacterium tuberculosis; test: Antimycobacterial activity against isoniazid/rifampicin/streptomycin-resistant Mycobacterium tuberculosis G133 assessed as inhibition of mycobacterial growth up to 50 ug/ml incubated for 2 weeks by MABA method
[5] = test system: Mycobacterium tuberculosis; test: Antibacterial activity against multidrug-resistant Mycobacterium tuberculosis

Row | SMILES | -logMIC [1] | MIC [1] | -logMIC [2] | MIC [2] | growth inhibition (GI) [3] | growth inhibition (GI) [4] | MIC [5]
1 | COc1cc(C[C@@H](C)[C@@H](C)Cc2ccc(OC(C)=O)c(OC)c2)ccc1OC(C)=O | 4.23 | > 50 µg/mL | 4.23 | > 50 µg/mL |  |  | 
2 | COc1cc(C[C@@H](C)[C@@H](C)Cc2ccc(OC(=O)c3ccccc3[N+](=O)[O-])c(OC)c2)ccc1OC(=O)c1ccccc1[N+](=O)[O-] | 4.03 |  | 4.03 |  | inactive | inactive | 
3 | CCCCCCCC/C=C\CCCCCCCC(=O)Oc1ccc(C[C@@H](C)[C@@H](C)Cc2ccc(OC(=O)CCCCCCC/C=C\CCCCCCCC)c(OC)c2)cc1OC | 4.58 |  | 4.58 |  | inactive | inactive | 
4 | COc1cc(C[C@@H](C)[C@@H](C)Cc2ccc(OC(=O)c3ccccn3)c(OC)c2)ccc1OC(=O)c1ccccn1 | 3.91 |  | 3.91 |  | inactive | inactive | 
5 | COc1cc(C[C@@H](C)[C@@H](C)Cc2ccc(OC(=O)c3ccc(Br)cc3)c(OC)c2)ccc1OC(=O)c1ccc(Br)cc1 | 4.09 |  | 4.09 |  | inactive | inactive | 
6 | COc1cc(C[C@@H](C)[C@@H](C)Cc2ccc(OCCN3CCCC3)c(OC)c2)ccc1OCCN1CCCC1 |  | 12.5 µg/mL (≈ 23.8 µM) |  | 12.5 µg/mL (≈ 23.8 µM) |  |  | 
7 | CCCC(=O)Oc1ccc(C[C@@H](C)[C@@H](C)Cc2ccc(OC(=O)CCC)c(OC)c2)cc1OC | 4.03 |  | 4.03 |  | inactive | inactive | 
8 | CCCCCCCCCCCCCCCC(=O)Oc1ccc(C[C@@H](C)[C@@H](C)Cc2ccc(OC(=O)CCCCCCCCCCCCCCC)c(OC)c2)cc1OC | 4.02 |  | 4.02 |  | inactive | inactive | 
9 | COc1cc(C[C@@H](C)[C@@H](C)Cc2ccc(OC(=O)c3cccnc3)c(OC)c2)ccc1OC(=O)c1cccnc1 | 4.2 | > 50 µg/mL | 4.2 | > 50 µg/mL |  |  | 
10 | COc1cc(C[C@@H](C)[C@@H](C)Cc2ccc(OCCN(C)C)c(OC)c2)ccc1OCCN(C)C | 4.62 | 12.5 µg/mL (≈ 26.4 µM) | 4.62 | 12.5 µg/mL (≈ 26.4 µM) |  |  | 
11 | COc1cc(C[C@@H](C)[C@@H](C)Cc2ccc(OCCN3CCOCC3)c(OC)c2)ccc1OCCN1CCOCC1 |  | 6.25 µg/mL (≈ 11.2 µM) |  | 25 µg/mL (≈ 44.9 µM) |  |  | 
12 | CCCCCCCCCCCCCCCCCC(=O)Oc1ccc(C[C@@H](C)[C@@H](C)Cc2ccc(OC(=O)CCCCCCCCCCCCCCCCC)c(OC)c2)cc1OC | 3.85 |  | 3.85 |  | inactive | inactive | 
13 | COc1cc(C[C@@H](C)[C@@H](C)Cc2ccc(OC(=O)c3ccccc3)c(OC)c2)ccc1OC(=O)c1ccccc1 | 4.14 |  | 4.14 |  | inactive | inactive | 
14 | COc1cc(C[C@@H](C)[C@@H](C)Cc2ccc(OCCN3CCCCC3)c(OC)c2)ccc1OCCN1CCCCC1 |  | 6.25 µg/mL (≈ 11.3 µM) |  | 6.25 µg/mL (≈ 11.3 µM) |  |  | 
15 | CCN(CC)CCOc1ccc(C[C@@H](C)[C@@H](C)Cc2ccc(OCCN(CC)CC)c(OC)c2)cc1OC | 4.25 | 25 µg/mL (≈ 47.3 µM) | 4.25 | 25 µg/mL (≈ 47.3 µM) |  |  | 
16 | COc1cc(C[C@@H](C)[C@@H](C)Cc2ccc(OC(=O)c3cnccn3)c(OC)c2)ccc1OC(=O)c1cnccn1 | 4.23 | > 50 µg/mL | 4.23 | > 50 µg/mL |  |  | 
17 | COc1cc(C[C@@H](C)[C@@H](C)Cc2ccc(OC(=O)c3ccc(Br)cc3)c(OC)c2)ccc1O (racemic) | 3.98 | > 50 µg/mL | 3.97 | > 50 µg/mL |  |  | 
18 | COc1cc(C[C@@H](C)[C@@H](C)Cc2ccc(OC(=O)c3ccccc3[N+](=O)[O-])c(OC)c2)ccc1O (racemic) | 4.24 | 50 µg/mL (≈ 104 µM) | 3.93 | > 50 µg/mL |  |  | 

Row | SMILES | -logMIC [1] | MIC [1] | -logMIC [2] | MIC [2] | growth inhibition (GI) [3] | growth inhibition (GI) [4] | MIC [5]
19 | CCCCCCCCCCCCCCCCCC(=O)Oc1ccc(C[C@H](C)[C@H](C)Cc2ccc(O)c(OC)c2)cc1OC (racemic) | 3.84 |  | 3.84 |  | inactive | inactive | 
20 | COc1cc(C[C@@H](C)[C@@H](C)Cc2ccc(OCCN3CCCCC3)c(OC)c2)ccc1O (racemic) |  | 25 µg/mL (≈ 56.6 µM) |  | 25 µg/mL (≈ 56.6 µM) |  |  | 
21 | COc1cc(C[C@@H](C)[C@@H](C)Cc2ccc(OC(C)=O)c(OC)c2)ccc1O (racemic) | 4.07 | > 50 µg/mL | 4.07 | > 50 µg/mL |  |  | 
22 | CCCCCCCC/C=C\CCCCCCCC(=O)Oc1ccc(C[C@H](C)[C@H](C)Cc2ccc(O)c(OC)c2)cc1OC (racemic) | 3.9 |  | 3.9 |  | inactive | inactive | 
23 | COc1cc(C[C@@H](C)[C@@H](C)Cc2ccc(OC(=O)c3ccccc3)c(OC)c2)ccc1O (racemic) | 4.01 | > 50 µg/mL | 4 | > 50 µg/mL |  |  | 
24 | CCCC(=O)Oc1ccc(C[C@H](C)[C@H](C)Cc2ccc(O)c(OC)c2)cc1OC (racemic) | 3.93 |  | 3.93 |  | inactive | inactive | 
25 | COc1cc(C[C@@H](C)[C@@H](C)Cc2ccc(OC(=O)c3cnccn3)c(OC)c2)ccc1O (racemic) | 4.07 | > 50 µg/mL | 4.07 | > 50 µg/mL |  |  | 
26 | CCCCCCCCCCCCCCCC(=O)Oc1ccc(C[C@H](C)[C@H](C)Cc2ccc(O)c(OC)c2)cc1OC (racemic) | 3.93 |  | 3.93 |  | inactive | inactive | 
27 | COc1cc(C[C@@H](C)[C@@H](C)Cc2ccc(OCCN3CCCC3)c(OC)c2)ccc1O (racemic) | 4.95 | 25 µg/mL (≈ 58.5 µM) | 4.95 | 25 µg/mL (≈ 58.5 µM) |  |  | 
28 | COc1cc(C[C@@H](C)[C@@H](C)Cc2ccc(OC(=O)c3cccnc3)c(OC)c2)ccc1O (racemic) | 4.05 | 50 µg/mL (≈ 115 µM) | 4.05 | 50 µg/mL (≈ 115 µM) |  |  | 
29 | COc1cc(C[C@@H](C)[C@@H](C)Cc2ccc(OC(=O)c3ccccn3)c(OC)c2)ccc1O (racemic) | 3.86 | 25 µg/mL (≈ 57.4 µM) | 3.86 | > 50 µg/mL |  |  | 
30 | COc1cc(C[C@@H](C)[C@@H](C)Cc2ccc(OCCN(C)C)c(OC)c2)ccc1O (racemic) | 4.23 | > 50 µg/mL | 4.23 | > 50 µg/mL |  |  | 
31 | COc1cc(C[C@@H](C)[C@@H](C)Cc2ccc(OC)c(OC)c2)ccc1O (racemic) | 3.94 | 50 µg/mL (≈ 145 µM) | 3.94 | 50 µg/mL (≈ 145 µM) |  |  | 
32 | COc1cc(C[C@@H](C)[C@@H](C)Cc2ccc(OCCN3CCOCC3)c(OC)c2)ccc1O (racemic) |  |  |  |  | inactive | inactive | 
33 | CC[C@@H](CO)NCCN[C@@H](CC)CO [ETHAMBUTOL] |  | 6.25 µg/mL (≈ 30.6 µM) |  | 3.12 µg/mL (≈ 15.3 µM) |  |  | 
34 | C[C@H]1COc2c(N3CCN(C)CC3)c(F)cc3c(=O)c(C(=O)O)cn1c23.C[C@H]1COc2c(N3CCN(C)CC3)c(F)cc3c(=O)c(C(=O)O)cn1c23.O [LEVOFLOXACIN] |  | 6.25 µg/mL |  | 1.56 µg/mL |  |  | 
35 | COc1cc(C[C@@H](C)[C@@H](C)Cc2ccc(O)c(OC)c2)ccc1O [MESODIHYDROGUAIARETIC ACID] |  | > 50 µg/mL |  | > 50 µg/mL |  |  | 12.5 to 50 µg/mL (≈ 37.8 to 151 µM)
36 | COc1ccc(C[C@@H](C)[C@@H](C)Cc2ccc(OC)c(OC)c2)cc1OC [TERAMEPROCOL] | 4.95 |  | 4.35 |  | inactive | inactive | 

Source: ChEMBL document CHEMBL4043204, “meso-Dihydroguaiaretic acid derivatives with antibacterial and antimycobacterial activity” (Bioorg Med Chem, 2017)
